For data set [1], the target named is T1, hUHRF1 (Homo sapiens, UniProt Q96T88, D142A).
T1 sequence (Q96T88 1-793 D142A): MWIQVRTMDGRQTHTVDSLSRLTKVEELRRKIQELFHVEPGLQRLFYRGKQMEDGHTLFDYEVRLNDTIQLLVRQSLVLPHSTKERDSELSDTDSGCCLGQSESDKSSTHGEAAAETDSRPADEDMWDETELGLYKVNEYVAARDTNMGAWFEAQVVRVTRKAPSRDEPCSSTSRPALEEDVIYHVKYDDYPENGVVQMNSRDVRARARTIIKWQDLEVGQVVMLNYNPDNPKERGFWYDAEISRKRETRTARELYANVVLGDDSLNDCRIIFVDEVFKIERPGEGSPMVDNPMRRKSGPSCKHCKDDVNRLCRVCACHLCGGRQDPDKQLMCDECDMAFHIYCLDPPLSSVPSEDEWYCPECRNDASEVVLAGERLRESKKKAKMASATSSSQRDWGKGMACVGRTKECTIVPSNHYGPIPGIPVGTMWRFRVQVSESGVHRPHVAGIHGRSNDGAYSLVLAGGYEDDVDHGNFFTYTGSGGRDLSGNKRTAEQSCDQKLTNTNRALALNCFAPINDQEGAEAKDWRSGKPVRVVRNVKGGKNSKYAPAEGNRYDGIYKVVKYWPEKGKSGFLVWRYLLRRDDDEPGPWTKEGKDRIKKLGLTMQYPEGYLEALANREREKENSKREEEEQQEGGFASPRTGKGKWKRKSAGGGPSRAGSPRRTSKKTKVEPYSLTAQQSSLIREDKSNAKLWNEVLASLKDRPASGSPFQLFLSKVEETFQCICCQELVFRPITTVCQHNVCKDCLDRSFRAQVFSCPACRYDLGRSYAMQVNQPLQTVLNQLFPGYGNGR
The data set is described as follows: MST with labeled recombinant mutant protein. Type of data set: binding.

Data set [2] addresses T2, hUHRF1 (Homo sapiens, UniProt Q96T88, R649A).
T2 sequence (Q96T88 1-793 R649A): T1 sequence (Q96T88 1-793 D142A) with A142D, R649A
The experiment in a line: MST with labeled recombinant mutant protein. Type of data set: binding.

The test system of a further data set is hUHRF1 (Homo sapiens). The experiment in a line: EMSA. Background: In EMSA bound probe runs differently from free probe, usually more slowly.
The target in data set [3] is T3, hUHRF1 (Homo sapiens, UniProt Q96T88).
T3 sequence (Q96T88 1-793): T1 sequence (Q96T88 1-793 D142A) with A142D
The experiment in a line: MST with labeled recombinant protein. The format is binding.

The target in data set [4] is T3, hUHRF1. The data set is described as follows: MST with labeled recombinant protein. Type of data set: binding. This is another data set of the same source.

Numbering of substitutions follows the chain as printed. Where two headings read alike, the source gives them in different places.

On to `CCCCCCCCCCCCCCCC(=O)OC[C@H](COP(=O)(O)O[C@H]1[C@H](O)[C@@H](OP(=O)(O)O)[C@H](O)[C@@H](O)[C@H]1O)OC(=O)CCCCCCCCCCCCCCC` [D142*, di-C 16:0 PI5P], for which the Kd on hUHRF1 [1] worked out at 60 µM. As for `CCCCCCCCCCCCCCCC(=O)OC[C@H](COP(=O)(O)O[C@H]1[C@H](O)[C@@H](OP(=O)(O)O)[C@H](O)[C@@H](O)[C@H]1O)OC(=O)CCCCCCCCCCCCCCC` [R649*, di-C 16:0 PI5P], on hUHRF1 [2], the dissociation constant Kd was found to be 3 µM.

Compound “H3unmodified mononucleosome, 147 bp Widom 601” showed a Kd in the data set with hUHRF1 (Homo sapiens) of 1.1 µM. As to `CCCCCCCCCCCCCCCC(=O)OC[C@H](COP(=O)(O)O[C@@H]1[C@H](O)[C@H](OP(=O)(O)O)[C@@H](O)[C@H](O)[C@H]1O)OC(=O)CCCCCCCCCCCCCCC` [PI3P, di-C 16:0 PI3P], at hUHRF1 [3], the Kd came out at 5.5 µM. Regarding `CCCCCCCCCCCCCCCC(=O)OC[C@H](COP(=O)(O)O[C@H]1[C@H](O)[C@@H](OP(=O)(O)O)[C@H](O)[C@@H](O)[C@H]1O)OC(=O)CCCCCCCCCCCCCCC` [PI5P, di-C 16:0 PI5P], the Kd on hUHRF1 [4] was determined as 4.7 µM.

One may read the Kd as the free concentration of one partner at which half of the binding sites on the other are occupied at equilibrium, for simple one-to-one binding.

For the origin of these results see article PMC9401617 (Science Advances, 2022).
